Data published in article PMC3567212 (Biochemistry, 2012).
Substitutions are numbered along the chain they refer to.

Legend:
Experiment in all cases: coupled spectrophotometric assay
Format in all cases: biochemical
[1] = target: T1, Rhizobium etli pyruvate carboxylase (RePC) (Rhizobium etli, UniProt Q2K340, R427S)
T1 sequence (Q2K340 1-1154 R427S): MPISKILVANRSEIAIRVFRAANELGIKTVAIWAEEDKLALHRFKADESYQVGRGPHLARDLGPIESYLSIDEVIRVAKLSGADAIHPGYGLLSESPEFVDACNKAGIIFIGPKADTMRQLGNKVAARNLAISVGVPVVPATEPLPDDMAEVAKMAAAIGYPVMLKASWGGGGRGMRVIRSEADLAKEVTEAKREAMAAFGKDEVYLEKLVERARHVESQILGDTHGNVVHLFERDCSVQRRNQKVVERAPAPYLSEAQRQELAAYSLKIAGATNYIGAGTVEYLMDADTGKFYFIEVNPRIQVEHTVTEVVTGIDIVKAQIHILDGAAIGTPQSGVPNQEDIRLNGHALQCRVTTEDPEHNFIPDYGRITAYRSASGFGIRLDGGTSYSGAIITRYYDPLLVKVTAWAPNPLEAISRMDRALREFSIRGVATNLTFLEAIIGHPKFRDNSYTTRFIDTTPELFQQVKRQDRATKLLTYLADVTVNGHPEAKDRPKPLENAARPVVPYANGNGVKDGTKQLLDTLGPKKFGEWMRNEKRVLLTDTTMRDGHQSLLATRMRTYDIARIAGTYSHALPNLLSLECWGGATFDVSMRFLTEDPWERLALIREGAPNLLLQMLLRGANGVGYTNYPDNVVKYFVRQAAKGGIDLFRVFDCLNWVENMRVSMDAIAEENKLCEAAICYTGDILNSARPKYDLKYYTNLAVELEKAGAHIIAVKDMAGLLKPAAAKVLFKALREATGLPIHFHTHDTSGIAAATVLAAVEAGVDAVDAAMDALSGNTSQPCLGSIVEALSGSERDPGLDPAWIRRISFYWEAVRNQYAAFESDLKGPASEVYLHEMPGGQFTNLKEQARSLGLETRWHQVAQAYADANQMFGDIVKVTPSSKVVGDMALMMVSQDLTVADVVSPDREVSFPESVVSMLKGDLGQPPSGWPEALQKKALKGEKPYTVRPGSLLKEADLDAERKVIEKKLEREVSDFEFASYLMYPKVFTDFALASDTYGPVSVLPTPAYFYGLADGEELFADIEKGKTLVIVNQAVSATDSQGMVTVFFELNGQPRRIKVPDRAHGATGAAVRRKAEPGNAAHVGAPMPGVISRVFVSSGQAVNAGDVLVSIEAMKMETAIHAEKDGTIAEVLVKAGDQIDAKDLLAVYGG

[2] = target: T2, Rhizobium etli pyruvate carboxylase (RePC) (Rhizobium etli, UniProt Q2K340, R472K)
T2 sequence (Q2K340 1-1154 R472K): T1 sequence (Q2K340 1-1154 R427S) with S427R, R472K

[3] = target: Rhizobium etli pyruvate carboxylase (RePC) (Rhizobium etli, UniProt Q2K340, R472S)

Measured: Ki

N[C@@H](CC(=O)O)C(=O)O [L-aspartate]
7 ± 1 mM: all assays above
